pIC50: −log10 of the molar value.
System: 874868-142-R-J2-PDC complex spheroids, growth % test/control
Assay: Anticancer human tumor 874868-142-R-J2-PDC patient-derived head and neck squamous carcinoma cell line growth inhibition [CLK]
Settings: for pIC50: curve of first compound; for viability, T/C: stronger effect = lower value
Method in brief: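 Patient-derived tumor cells grown as complex spheroids with HUVEC endothelial cells and mesenchymal stem cells, treated with drug combinations. Concentrations descend in half-log steps from near clinical Cmax, or from 10 microM if Cmax unknown.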
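Also: spheroids exposed to the compounds for 7 days.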
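For viability, T/C in this document: 100% = DMSO vehicle control viability.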

Nc1ccccc1NC(=O)c1ccc(CNC(=O)OCc2cccnc2)cc1 + CN1CCN(c2cc(C(=O)Nc3cc4cc(-c5cnn(C)c5)ccc4cn3)ccn2)CC1 gave a pIC50 (second compound 0.0316 µM) of 5.13, a pIC50 (second compound 0.1 µM) of 5.35 and a pIC50 (second compound 0.316 µM) of over 7.50. It also gave a pIC50 (second compound 1 µM) of over 7.50, a pIC50 (second compound 3.16 µM) of over 7.50 and a pIC50 (second compound 10 µM) of over 7.50. It also gave a viability, T/C (second compound 0.0316 µM, first compound 0.0316 µM) of 86.7%, a viability, T/C (second compound 0.0316 µM, first compound 0.1 µM) of 79.6% and a viability, T/C (second compound 0.0316 µM, first compound 0.316 µM) of 88.7%. For the same compound, the viability, T/C (second compound 0.0316 µM, first compound 1 µM) was 116%, the viability, T/C (second compound 0.0316 µM, first compound 3.16 µM) was 94.5% and the viability, T/C (second compound 0.0316 µM, first compound 10 µM) was 35.2%. It also gave a viability, T/C (second compound 0.1 µM, first compound 0.0316 µM) of 73.2%, a viability, T/C (second compound 0.1 µM, first compound 0.1 µM) of 67.8% and a viability, T/C (second compound 0.1 µM, first compound 0.316 µM) of 72.5%. It also gave a viability, T/C (second compound 0.1 µM, first compound 1 µM) of 102%, a viability, T/C (second compound 0.1 µM, first compound 3.16 µM) of 62.8% and a viability, T/C (second compound 0.1 µM, first compound 10 µM) of 21.2%. For the same compound, the viability, T/C (second compound 0.316 µM, first compound 0.0316 µM) was 13.4%, the viability, T/C (second compound 0.316 µM, first compound 0.1 µM) was 15.8% and the viability, T/C (second compound 0.316 µM, first compound 0.316 µM) was 15.8%. The viability, T/C (second compound 0.316 µM, first compound 1 µM) was 17.9%, the viability, T/C (second compound 0.316 µM, first compound 3.16 µM) was 7.51% and the viability, T/C (second compound 0.316 µM, first compound 10 µM) was 0.19%. It also gave a viability, T/C (second compound 1 µM, first compound 0.0316 µM) of 0.32%, a viability, T/C (second compound 1 µM, first compound 0.1 µM) of 6.56% and a viability, T/C (second compound 1 µM, first compound 0.316 µM) of 0.28%. It also gave a viability, T/C (second compound 1 µM, first compound 1 µM) of 0.17%, a viability, T/C (second compound 1 µM, first compound 3.16 µM) of 0.12% and a viability, T/C (second compound 1 µM, first compound 10 µM) of 2.14%. It also gave a viability, T/C (second compound 3.16 µM, first compound 0.0316 µM) of 0.23%, a viability, T/C (second compound 3.16 µM, first compound 0.1 µM) of 0.27% and a viability, T/C (second compound 3.16 µM, first compound 0.316 µM) of 0.18%. The viability, T/C (second compound 3.16 µM, first compound 1 µM) was 0.2%, the viability, T/C (second compound 3.16 µM, first compound 3.16 µM) was 0.27% and the viability, T/C (second compound 3.16 µM, first compound 10 µM) was 0.26%. For the same compound, the viability, T/C (second compound 10 µM, first compound 0.0316 µM) was 0.1%, the viability, T/C (second compound 10 µM, first compound 0.1 µM) was 0.32% and the viability, T/C (second compound 10 µM, first compound 0.316 µM) was 0.16%. It also gave a viability, T/C (second compound 10 µM, first compound 1 µM) of 0.14%, a viability, T/C (second compound 10 µM, first compound 3.16 µM) of 0.18% and a viability, T/C (second compound 10 µM, first compound 10 µM) of 2.46%.

Source: PubChem BioAssay AID2060601 (Molecular Pharmacology Branch, DTP, NCI, 2025)
